According to patent publication US20240115629A1, “ORAL COMPOSITION” (BLIS TECHNOLOGIES LIMITED, priority 2021, published 2024):

Tested on: BLIS M18 and K12
Experiment: Comparison of foaming agents: inhibition on agar plates
Format: cell-based, Streptococcus salivarius
Conditions: 10 μL spotted on CABK12 and BaCa agar plates, 37° C. 5% CO2, 24 hrs
Method: Samples were prepared by • 1. mixing 1.1 g of BLIS M18 with 9.9 g of phosphate buffered saline (PBS) for 5 min and diluting by 1 in 10 with PBS • 2. adding to CABK12 and BaCa agar plates • 3. spotting 10 μL of foaming agent to plates and incubating at 37° C. 5% CO2 for 24 hrs, • 4. determining inhibition

In the case of Sodium Cocyl Isethionate, the “Inhibitory to BLIS M18 and K12” value is reported as “Yes”.

For `CCCCCCCC/C=C\CCCCCCCC(=O)OCCOCC(OCCO)C1OCC(OCCO)C1OCCO` (stereo not shown) [Polysorbate 80], the “Inhibitory to BLIS M18 and K12” value was “No”.

In the case of `CCCCCCCCO[C@@H]1O[C@H](CO)[C@@H](O)[C@H](O)[C@H]1O` [Caprylyl glucoside], the “Inhibitory to BLIS M18 and K12” value is reported as “Yes”.

With Lauryl glucoside the “Inhibitory to BLIS M18 and K12” value was “Yes”.

`CCCCCCCCCCO[C@@H]1O[C@H](CO)[C@@H](O)[C@H](O)[C@H]1O` [Decyl Glucoside] was tested, and the “Inhibitory to BLIS M18 and K12” value was “Yes”.

With `CCCCCCCCCCCCOS(=O)(=O)[O-].[Na+]` [Sodium Lauryl Sulphate] the “Inhibitory to BLIS M18 and K12” value was “Yes”.

For Coco Glucoside, the “Inhibitory to BLIS M18 and K12” value was “Yes”.
